{"source": "patent US5231091A", "about": "“Bis-arylphosphate ester antagonists of platelet activating factor” (priority 1992, dated 1993)", "note": "Counter-ions that a name gives are not always drawn."}
{"target": "T1, PAF receptor (Oryctolagus cuniculus, UniProt G1TEI7)", "T1 construct": "endogenous in cells; host or cells: rabbit platelets (male New Zealand White)", "T1 sequence (G1TEI7 1-342)": "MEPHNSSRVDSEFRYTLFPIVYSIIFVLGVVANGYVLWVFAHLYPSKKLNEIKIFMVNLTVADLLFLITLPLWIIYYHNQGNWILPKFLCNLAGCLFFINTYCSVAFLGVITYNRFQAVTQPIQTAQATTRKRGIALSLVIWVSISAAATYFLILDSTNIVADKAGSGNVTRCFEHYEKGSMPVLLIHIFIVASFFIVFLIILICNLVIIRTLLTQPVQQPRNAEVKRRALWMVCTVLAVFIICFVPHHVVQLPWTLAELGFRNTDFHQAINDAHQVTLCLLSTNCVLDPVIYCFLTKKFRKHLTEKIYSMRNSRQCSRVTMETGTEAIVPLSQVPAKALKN", "experiment": "Inhibition of PAF-induced aggregation in rabbit platelet rich plasma", "type": "cell-based, rabbit (male New Zealand White)", "conditions": "not given", "method": "(§1) Test compounds were evaluated as PAF receptor antagonists in vitro by measuring inhibition of PAF (platelet activating factor) induced platelet aggregation. Platelet aggregation was measured by a modification of the method described in A. Wissner, et. al., J. Med. Chem., 27, 1174, 1984.\n(§2) Approximately 120-240 ml of blood were collected by cardiac puncture from unanesthetized male New Zealand White rabbits (Whaley's Summit View Farms, Belvedere, N.J.) with the use of 3.2% sodium citrate anticoagulant (1 part of citrate/10 parts of blood). All syringes and pipets were plastic. The blood was gently mixed and immediately centrifuged at 800 rpm for 10-15 minutes at room temperature to recover the platelet rich plasma (PRP). Platelet poor plasma (PPP) was prepared by centrifuging PRP at 2800 rpm for 10 minutes at room temperature.\n(§3) Dilutions (1:3000) of PRP in Isoton® diluent were made and platelet counts were determined on a Coulter Thrombocounter which was standardized with platelet reference standards (Interscience Platelet Control, Portland, Oreg.). PRP platelet counts were adjusted to approximately 400,000-500,000 platelets/μl by the addition of PPP.\n(§4) L-PAF was obtained from Calbiochem. A stock solution of 1-2 E-3M was prepared in 10% ethanol in water or 100% methanol and serial working dilutions were made using phosphate buffered saline (PBS). 1-2 E-3M stock solutions of test compounds were prepared in 100% methanol and serially diluted in PBS. All solutions were made up in plastic tubes, stored on ice and protected from heat and light. Solutions were prepared fresh or frozen at -20° C. and used within 48 hours.\n(§5) Incubation mixtures consisted of 400 μl PRP, 50 μl of PBS diluent or test compound and 50 μl of PAF agonist. More specifically, 400 μl of PRP was stabilized in a cuvette for 1-2 minutes at 37° C. in the aggregometer to achieve a stable baseline, then 50 μl of PBS or test compound, was added and incubated for 5 minutes before addition of the challenge concentration of PAF (final concentration of 5E-8M or 1E-7M, as determined from the dose response curve for PAF for that experiment). Aggregation was monitored for 5 minutes. Samples containing test compound or diluent were run simultaneously for comparison. Test compounds were initially evaluated at a screening concentration of 1E-5M.\n(§6) The recording equipment consisted of a dual channel Chronolog aggregometer connected to a dual channel 10 MV full scale deflection Omniscribe chart recorder (Houston Instruments). […] The bead suspension was used to set the 0% light transmission mark and clear water was used to set the 100% light transmission mark. These limits defined a full scale deflection. The aggregation traces were analyzed by a digitizing method (C. Kohler and B. Zoltan, J. Pharm. Methods, 12, 113, 1984) with x, y coordinate data stored in a computer file. A suitable program computed parameters of interest such as the magnitude of aggregation.", "units": {"IC50": "µM"}}
{"smiles": "CCCCCCCCCCCCCCCCCCNC(=O)Oc1cccc(OP(=O)([O-])Oc2cccc(C[n+]3csc(C)c3)c2)c1C", "note": "[3-[[3-[[Hydroxy[2-methyl-3-[[(octadecylamino)carbonyl]oxy]phenoxy]phosphinyl]oxy]phenyl]methyl]-5-methylthiazolium, hydroxide, inner salt]", "IC50": 1.8}
{"smiles": "CCCCCCCCCCCCCCCCCCNC(=O)Oc1cccc(OP(=O)([O-])Oc2cccc(C[n+]3ccsc3)c2)c1C", "note": "[3-[[3-[[Hydroxy[2-methyl-3-[[(octadecylamino)carbonyl]oxy]phenoxy]phosphinyl]oxy]phenyl]methyl]thiazolium, hydroxide, inner salt]", "IC50": 3.72}
{"target": "T1, PAF receptor", "experiment": "Inhibition of PAF-induced aggregation in rabbit platelet rich plasma", "type": "cell-based, rabbit (male New Zealand White)", "conditions": "rabbit platelet rich plasma; PAF challenge 5E-8M; number of experiments in parentheses; read-out: IC50 inhibition of PAF-induced aggregation", "method": "as §1, §2, §3, §4, §5, §6", "units": {"IC50": "µM"}}
{"smiles": "CCCCCCCCCCCCCCOc1cccc(OP(=O)([O-])Oc2cccc(C[n+]3cccc4ccccc43)c2)c1C(=O)OC", "note": "[1-[[3-Hydroxy[2-(methoxycarbonyl)-3-(tetradecyloxy)-phenoxy]phosphinyl]oxy]phenyl]methyl]quinolinium, hydroxide, inner salt]", "IC50": 6.26}
{"smiles": "CCCCCCCCCCCCCCOc1cccc(OP(=O)([O-])Oc2cccc(C[n+]3ccccc3)c2)c1OC", "note": "[1-[[3-[[Hydroxy[2-methoxy-3-(tetradecyloxy)phenoxy]-phosphinyl]oxy]phenyl]methyl]-pyridinium, hydroxide, inner salt]", "IC50": 165}
{"smiles": "CCCCCCCCCCCCCCOc1cccc(OP(=O)([O-])Oc2cccc(C[n+]3cccc4ccccc43)c2)c1OC", "note": "[1-[[3-[[Hydroxy[2-methoxy-3-(tetradecyloxy)phenoxy]-phosphinyl]oxy]phenyl]methyl]-quinolinium, hydroxide, inner salt]", "IC50": 8}
{"smiles": "CCCCCCCCCCCCCCCCOc1cccc(OP(=O)([O-])Oc2cccc(C[n+]3ccccc3)c2)c1", "note": "[1-[[3-[[[3-(Hexadecyloxy)phenoxy]hydroxyphosphinyl]-oxy]phenyl]methyl]-pyridinium, hydroxide inner salt]", "IC50": 15.4}
{"smiles": "CCCCCCCCCCCCCCCCOc1cccc(OP(=O)(O)Oc2cccc(C[n+]3cccc4ccccc43)c2)c1", "note": "[1-[[3-[[[3-(Hexadecyloxy)phenoxy]hydroxyphosphinyl]-oxy]phenyl]methyl]-quinolinium, hydroxide]", "IC50": 21.8}
{"smiles": "CCCCCCCCCCCCCCCCOc1cccc(OP(=O)([O-])Oc2cccc(C[n+]3cccc4ccccc43)c2)c1C", "note": "[1-[[3-[[[3-(hexadecyloxy)-2-methylphenoxy]hydroxyphosphinyl]oxy]phenyl]methyl]quinolinium]", "IC50": 29.6}
{"smiles": "CCCCCCCCCCCCCCOc1cccc(OP(=O)([O-])Oc2cccc(C[n+]3ccc4ccccc4c3)c2)c1OC", "note": "[2-[[3-[[Hydroxy[2-methoxy-3-(tetradecyloxy)phenoxy]-phosphinyl]oxy]phenyl]methyl]-isoquinolinium, hydroxide, inner salt]", "IC50": 20}
{"smiles": "CCCCCCCCCCCCCCCCOc1cccc(OP(=O)([O-])Oc2ccccc2C[n+]2ccsc2)c1", "note": "[3-[[2-[[[3-(Hexadecyloxy)phenoxy]hydroxyphosphinyl]oxy]phenyl]methyl]-thiazolium, hydroxide, inner salt]", "IC50": 6.36}
{"smiles": "CCCCCCCCCCCCCCOc1ccccc1OP(=O)([O-])Oc1cccc(C[n+]2ccsc2)c1", "note": "[3-[[3-[ [Hydroxy[2-(tetradecyloxy)phenoxy]phosphinyl]-oxy]phenyl]methyl]thiazolium, hydroxide, inner salt]", "IC50": 57.5}
{"smiles": "CCCCCCCCCCCCCCc1cccc(OP(=O)([O-])Oc2cccc(C[n+]3ccsc3)c2)c1", "note": "[3-[[3-[[Hydroxy(3-tetradecylphenoxy)phosphinyl]oxy]-phenyl]methyl]thiazolium, hydroxide, inner salt]", "IC50": 18.8}
{"smiles": "CCCCCCCCCCCCCCOc1cccc(OP(=O)([O-])Oc2cccc(C[n+]3ccsc3)c2)c1C(=O)OC", "note": "[3-[[3-[[Hydroxy[2-(methoxycarbonyl)-3-(tetradecyloxy)-phenoxy]phosphinyl]oxy]phenyl]methyl]-thiazolium, hydroxide, inner salt]", "IC50": 2.7}
{"smiles": "CCCCCCCCCCCCCCOc1cccc(OP(=O)([O-])Oc2cccc(C[n+]3csc(C)c3)c2)c1C(=O)OC", "note": "[3-[[3-[[Hydroxy[2-(methoxycarbonyl)-3-(tetradecyloxy)phenoxy]phosphinyl]oxy]phenyl]methyl]-5-methylthiazolium, hydroxide, inner salt]", "IC50": 0.521}
{"smiles": "CCCCCCCCCCCCCCOc1cccc(OP(=O)([O-])Oc2cccc(C[n+]3csc(C)c3)c2)c1", "note": "[3-[[3-[[Hydroxy[3-(tetradecyloxy)phenoxy]phosphinyl]-oxy]phenyl]methyl]-5-methyl-thiazolium, hydroxide, inner salt]", "IC50": 8.82}
{"smiles": "CCCCCCCCCCCCCCOc1cccc(OP(=O)([O-])Oc2cccc(C[n+]3ccsc3)c2)c1", "note": "[3-[[3-[[Hydroxy[3-(tetradecyloxy)phenoxy]phosphinyl]-oxy]phenyl]methyl]thiazolium, hydroxide, inner salt]", "IC50": 6.15}
{"smiles": "Cc1c[n+](Cc2cccc(OP(=O)([O-])Oc3ccc(OCc4ccccc4)cc3)c2)cs1", "note": "[3-[[3-[[Hydroxy[4-(phenylmethoxy)phenoxy]phosphinyl]oxy]phenyl]methyl]-5-methyl-thiazolium, hydroxide, inner salt]", "IC50": 1530}
{"smiles": "CCCCCCCCCCCCCCOc1cccc(COP(=O)([O-])Oc2cccc(C[n+]3ccsc3)c2)c1", "note": "[3-[[3-[[Hydroxy[[3-(tetradecyloxy)phenyl]methoxy]-phosphinyl]oxy]phenyl]methyl]thiazolium, hydroxide, inner salt]", "IC50": 4.22}
{"smiles": "CCCCCCCCCCCCOc1cc(OP(=O)([O-])Oc2cccc(C[n+]3ccsc3)c2)c(C(C)(C)C)cc1C(C)(C)C", "note": "[3-[[3-[[[2,4-Bis(1,1-dimethylethyl)-5-(dodecyloxy)phenoxy]hydroxyphosphinyl]oxy]phenyl]methyl]thiazolium, hydroxide, inner salt]", "IC50": 30.2}
{"smiles": "CCCCCCCCCCCCOc1cc(C(C)(C)C)c(OP(=O)([O-])Oc2cccc(C[n+]3csc(C)c3)c2)cc1C(C)(C)C", "note": "[3-[[3-[[[2,5-Bis(1,1-dimethylethyl)-4-(dodecyloxy)phenoxy] hydroxyphosphinyl]oxy]phenyl]methyl]-5-methyl-thiazolium, hydroxide, inner salt]", "IC50": 0.412}
{"smiles": "CCCCCCCCCCCCOc1cccc(OP(=O)([O-])Oc2cccc(C[n+]3ccsc3)c2)c1OC", "note": "[3-[[3-[[[3-(Dodecyloxy)-2-methoxyphenoxy]hydroxyphosphinyl]oxy]phenyl]methyl]thiazolium, hydroxide, inner salt]", "IC50": 1.72}
{"smiles": "CCCCCCCCCCCCOc1cccc(OP(=O)([O-])Oc2cccc(C[n+]3ccsc3)c2)c1", "note": "[3-[[3-[[[3-(Dodecyloxy)phenoxy]hydroxyphosphinyl]-oxy]phenyl]methyl]thiazolium, hydroxide, inner salt]", "IC50": 52.8}
{"smiles": "CCCCCCCCCCCCCCCCOc1ccc(OP(=O)([O-])Oc2cccc(C[n+]3ccsc3)c2)cc1", "note": "[3-[[3-[[[4-(Hexadecyloxy)phenoxy]hydroxyphosphinyl]-oxy]phenyl]methyl]thiazolium, hydroxide, inner salt]", "IC50": 3.28}
{"smiles": "CCCCCCCCCCCCOc1ccc2ccc(OP(=O)([O-])Oc3cccc(C[n+]4ccsc4)c3)cc2c1", "note": "[3-[[3-[[[[7-(dodecyloxy)-2-naphthalenyl]oxy]hydroxyphosphinyl]oxy]phenyl]methyl]thiazolium, hydroxide, inner salt]", "IC50": 26.4}
{"smiles": "CCCCCCCCCCCCOc1cccc(OP(=O)([O-])Oc2cccc(C[n+]3cccc4ccccc43)c2)c1OC", "note": "[-[[3-[[[3-(Dodecyloxy)-2-methoxyphenoxy]hydroxyphosphinyl]oxy]phenyl]methyl]quinolinium, hydroxide, inner salt]", "IC50": 24.7}
{"tested_on": "PAF induced lethality", "experiment": "PAF induced lethality in mice", "type": "in vivo", "conditions": "I.P. 10 mg/kg; corrected for control lethality", "method": "PAF given I.V. to mice causes an immediate hypotensive shock leading to death in 1 hour or less. Compounds were given intraperitoneally or P.O. at various times before the PAF challenge. Animals alive after 2 hours were counted and the activity of test compounds expressed as % survival corrected for any control (saline treated) animals which survived the PAF challenge.", "units": {"PAF induced lethality, % protection": "%"}}
{"smiles": "CCCCCCCCCCCCCCOc1cccc(OP(=O)([O-])Oc2cccc(C[n+]3ccsc3)c2)c1C(=O)OC", "note": "[3-[[3-[[Hydroxy[2-(methoxycarbonyl)-3-(tetradecyloxy)-phenoxy]phosphinyl]oxy]phenyl]methyl]-thiazolium, hydroxide, inner salt]", "PAF induced lethality, % protection": 12}
{"smiles": "CCCCCCCCCCCCCCOc1cccc(OP(=O)([O-])Oc2cccc(C[n+]3csc(C)c3)c2)c1C(=O)OC", "note": "[3-[[3-[[Hydroxy[2-(methoxycarbonyl)-3-(tetradecyloxy)phenoxy]phosphinyl]oxy]phenyl]methyl]-5-methylthiazolium, hydroxide, inner salt]", "PAF induced lethality, % protection": 0}
{"smiles": "CCCCCCCCCCCCOc1cc(C(C)(C)C)c(OP(=O)([O-])Oc2cccc(C[n+]3csc(C)c3)c2)cc1C(C)(C)C", "note": "[3-[[3-[[[2,5-Bis(1,1-dimethylethyl)-4-(dodecyloxy)phenoxy] hydroxyphosphinyl]oxy]phenyl]methyl]-5-methyl-thiazolium, hydroxide, inner salt]", "PAF induced lethality, % protection": 36}
{"smiles": "CCCCCCCCCCCCCCCCOc1ccc(OP(=O)([O-])Oc2cccc(C[n+]3ccsc3)c2)cc1", "note": "[3-[[3-[[[4-(Hexadecyloxy)phenoxy]hydroxyphosphinyl]-oxy]phenyl]methyl]thiazolium, hydroxide, inner salt]", "PAF induced lethality, % protection": 96}
